Laboratory results reported in US6472389B1, “Pyrrolo[1,2-b] pyridazine derivatives having sPLA2 inhibitory effect” (Shionogi & Co., Ltd., priority 1998, dated 2002).

Key:
[1] = biological target: T1, recombinant human secretory phospholipase A2 (Homo sapiens, UniProt P14555); assay: Inhibition test of human secretory phospholipase A2 (chromogenic assay, 96 well microtiterplate); type: biochemical; conditions: sPLA2 50 ng/well, 40° C., 30 minutes, OD 405 nm, substrate 1,2-bis(heptanoylthio)-1,2-dideoxy-sn-glycero-3-phospholylcholine
T1 sequence (P14555 21-144): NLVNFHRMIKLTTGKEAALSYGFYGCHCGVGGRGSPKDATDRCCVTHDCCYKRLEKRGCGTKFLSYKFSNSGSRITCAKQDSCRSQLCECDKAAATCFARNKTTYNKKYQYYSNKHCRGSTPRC
From the text: Inhibition Test of Human Secretory Phospholipase A2
In order to identify and evaluate an inhibitor of recombinant human secretory phospholipase A2, the following chromogenic assay is utilized. The assay herein has been applied for high volume screening wherein 96 well microtiterplate is used. A general explanation for such assay is described in “Analysis of Human Synovial Fluid Phospholipase A2 on Short Chain Phosphatidylcholine-Mixed Micelles: Development of a Spectrophotometric Assay Suitable for a Micortiterplate Reader” (Analytical Biochemistry, 204, pp 190-197, 1992 by Laure. J. Reynolds. Lori L. Hughes and Edward A. Dennis: the disclosure of which is incorporated herein for reference.
Bovine Serum Albumin (fatty acid free) (1 g/L) (Sigma A-7030)
pH 7.5 (adjusted with NaOH)
pH 4.5 (adjusted with acetic acid)
1 mg of sPLA2 is dissolved in 1 ml of an enzyme buffer. Thereafter, the solution is maintained at 4° C.
In the assay, 5 μl of the solution is diluted with 1995 μl of the reaction buffer to be used.
198 mg of 5,5′-dithiobis-2-[…] (manufactured by Wako Pure Chemicals) is dissolved in 100 ml of H2O
100 mg of racemic 1,2-bis(heptanoylthio)-1,2-dideoxy-sn-glycero-3-phospholylcholine is dissolved in 1 ml of chloroform.
624.9 mg of Triton-X 100 is dissolved in the reaction buffer.
Enzyme Reaction: for 1 plate of Microtiterplate
1) 0.106 ml of the substrate solution is put in a centrifugal tube, and nitrogen gas is jetted to remove the solvent. 0.54 ml of Triton-X 100 is added thereto, the mixture is stirred, thereafter it is sonified in a bath type sonification to dissolve. To the resulting product are added 17.8 m1l of the reaction buffer and 0.46 ml of DTNB, and 0.18 ml each of the admixture is poured to wells of the 96 well microtiterplate.
2) 10 μl of a test compound (or solvent blank) are added in accordance with alignment of plates which has been previously set.
3) Incubation is effected at 40° C. for 15 minutes.
4) 20 μl of an enzyme solution (sPLA2) which has been previously diluted (50 ng/well) are added to start reaction (40° C., 30 minutes).
5) Changes in absorbancy for 30 minutes are measured by a plate reader, and inhibition activity was calculated (OD: 405 nm).
6) IC50 was determined by plotting log concentration with respect to inhibition values within 10% to 90% inhibiting range.

SMILES	IC50 [1]	melting point
CCc1c(C(=O)C(N)=O)c2c(OCC(=O)O)cc(C3CCCCC3)nn2c1Cc1ccccc1 [Compound I-67]	16 nM	272 to 275 °C (dec.)
CCc1c(C(=O)C(N)=O)c2c(OCC(=O)O)cc(C3CCCC3)nn2c1Cc1ccccc1 [Compound I-68]	25 nM	250 to 252 °C (dec.)
CCc1c(C(=O)C(N)=O)c2c(OCC(=O)O)cc(-c3ccc4c(c3)OCO4)nn2c1Cc1ccccc1 [Compound I-69]	8 nM	240 to 243 °C (dec.)
CCc1cc(OCC(=O)O)c2c(C(=O)C(N)=O)c(C)c(Cc3ccccc3)n2n1 [Compound I-70]	9 nM	200 to 201 °C
CCCc1cc(OCC(=O)O)c2c(C(=O)C(N)=O)c(C)c(Cc3ccccc3)n2n1 [Compound I-71]	8 nM	204 to 205 °C
Cc1c(C(=O)C(N)=O)c2c(OCC(=O)O)cc(Cc3ccccc3)nn2c1Cc1ccccc1 [Compound I-72]	9 nM	245 to 247 °C (dec.)
CSCc1cc(OCC(=O)O)c2c(C(=O)C(N)=O)c(C)c(Cc3ccccc3)n2n1 [Compound I-73]	19 nM	228 to 229 °C (dec.)
COCc1cc(OCC(=O)O)c2c(C(=O)C(N)=O)c(C)c(Cc3ccccc3)n2n1 [Compound I-74]	15 nM	197 to 198 °C

Now from value to compound:

IC50 [1]	melting point	SMILES
9 nM	215 to 216 °C	CCc1c(C(=O)C(N)=O)c2c(OCC(=O)O)cc(COc3ccc(F)cc3)nn2c1Cc1ccccc1 [Compound I-75]
6 nM	218 to 219 °C	CCc1c(C(=O)C(N)=O)c2c(OCC(=O)O)cc(COc3ccc(OC)cc3)nn2c1Cc1ccccc1 [Compound I-76]
10 nM	204 to 206 °C	CCc1c(C(=O)C(N)=O)c2c(OCC(=O)O)cc(COc3ccc(OC)c(OC)c3)nn2c1Cc1ccccc1 [Compound I-77]
464 nM	210 to 212 °C (dec.)	CCc1c(C(=O)C(N)=O)c2c(OCC(=O)O)cc(CN3C(=O)CCC3=O)nn2c1Cc1ccccc1 [Compound I-79]
13 nM	199 to 200 °C (dec.)	CCc1c(C(=O)C(N)=O)c2c(OCC(=O)O)cc(CN=[N+]=[N-])nn2c1Cc1ccccc1 [Compound I-80]
8190 nM	232 to 233 °C (dec.)	Cc1c(C(=O)C(N)=O)c2c(OCC(=O)O)cc(Cc3ccccc3)nn2c1C [Compound I-81]
93 nM	242 to 244 °C (dec.)	Cc1cc(OCC(=O)O)c2c(C(=O)C(N)=O)c(C)c(Cc3ccccc3-c3ccc(F)cc3)n2n1 [Compound I-82]
83 nM	271 to 276 °C (dec.)	Cc1cc(OCC(=O)O)c2c(C(=O)C(N)=O)c(C)c(Cc3ccc(-c4ccccc4)cc3)n2n1 [Compound I-83]
8 nM	214 to 216 °C (dec.)	CCc1c(C(=O)C(N)=O)c2c(OCC(=O)O)cc(C)nn2c1Cc1ccccc1-c1ccc(F)cc1 [Compound I-84]
